From US10905123B2, “Herbicidal compounds” (Syngenta Participations AG, priority 2015, dated 2021)

Assays:
Type in all cases: in vivo
Conditions in all cases: evaluated after 13 days
[1] = tested on: Avena fatua (AVEFA); experiment: B2 post-emergence herbicidal activity
Description: (§1) Seeds of a variety of test species were sown in standard soil in pots: Triticum aestivium (TRZAW), Oryza sativa (ORYSA), Avena fatua (AVEFA), Alopecurus myosuroides (ALOMY), Echinochloa crus-galli (ECHCG), Lolium perenne (LOLPE). After 8 days cultivation (post-emergence) under controlled conditions in a glasshouse (at 24/16° C., day/night; 14 hours light; 65% humidity), the plants were sprayed with an aqueous spray solution derived from the formulation of the technical active ingredient in acetone/water (50:50) solution containing 0.5% Tween 20 (polyoxyethelyene sorbitan monolaurate, CAS RN 9005-64-5). The test plants were then grown in a glasshouse under controlled conditions (at 24/16° C., day/night; 14 hours light; 65% humidity) and watered twice daily. After 13 days, the test was evaluated (5=total damage to plant; 0=no damage to plant).

[2] = tested on: Lolium perenne (LOLPE); experiment: B2 post-emergence herbicidal activity
Description: as §1

[3] = tested on: Echinochloa crus-galli (ECHCG); experiment: B2 post-emergence herbicidal activity
Description: as §1

[4] = tested on: Triticum aestivium (TRZAW); experiment: B2 post-emergence herbicidal activity
Description: as §1

[5] = tested on: Oryza sativa (ORYSA); experiment: B2 post-emergence herbicidal activity
Description: as §1

[6] = tested on: Alopecurus myosuroides (ALOMY); experiment: B2 post-emergence herbicidal activity
Description: as §1

[7] = tested on: Avena fatua (AVEFA); experiment: B1 pre-emergence herbicidal activity
Description: as §1, with “After” for “After 8 days”, “for one day (pre-emergence)” for “(post-emergence)”

[8] = tested on: Lolium perenne (LOLPE); experiment: B1 pre-emergence herbicidal activity
Description: as §1, with “After” for “After 8 days”, “for one day (pre-emergence)” for “(post-emergence)”

[9] = tested on: Echinochloa crus-galli (ECHCG); experiment: B1 pre-emergence herbicidal activity
Description: as §1, with “After” for “After 8 days”, “for one day (pre-emergence)” for “(post-emergence)”

[10] = tested on: Triticum aestivium (TRZAW); experiment: B1 pre-emergence herbicidal activity
Description: as §1, with “After” for “After 8 days”, “for one day (pre-emergence)” for “(post-emergence)”

[11] = tested on: Oryza sativa (ORYSA); experiment: B1 pre-emergence herbicidal activity
Description: as §1, with “After” for “After 8 days”, “for one day (pre-emergence)” for “(post-emergence)”

[12] = tested on: Alopecurus myosuroides (ALOMY); experiment: B1 pre-emergence herbicidal activity
Description: as §1, with “After” for “After 8 days”, “for one day (pre-emergence)” for “(post-emergence)”

SMILES | Control of AVEFA after post-emergence application (damage score 0-5) ([1]; Rate 1000 g/ha) | Control of LOLPE after post-emergence application (damage score 0-5) ([2]; Rate 1000 g/ha) | Control of ECHCG after post-emergence application (damage score 0-5) ([3]; Rate 1000 g/ha) | Control of TRZAW after post-emergence application (damage score 0-5) ([4]; Rate 1000 g/ha) | Control of ORYSA after post-emergence application (damage score 0-5) ([5]; Rate 1000 g/ha) | Control of ALOMY after post-emergence application (damage score 0-5) ([6]; Rate 1000 g/ha) | Control of AVEFA after pre-emergence application (damage score 0-5) ([7]; Rate 1000 g/ha) | Control of LOLPE after pre-emergence application (damage score 0-5) ([8]; Rate 1000 g/ha) | Control of ECHCG after pre-emergence application (damage score 0-5) ([9]; Rate 1000 g/ha) | Control of TRZAW after pre-emergence application (damage score 0-5) ([10]; Rate 1000 g/ha) | Control of ORYSA after pre-emergence application (damage score 0-5) ([11]; Rate 1000 g/ha) | Control of ALOMY after pre-emergence application (damage score 0-5) ([12]; Rate 1000 g/ha) | other results
CN(C(=O)OC(C)(C)C)c1cc(-c2cccnc2)nn1C [Compound A1, tert-butyl N-methyl-N-[2-methyl-5-(3-pyridyl)pyrazol-3-yl]carbamate] | 1 | 1 | 5 | 1 | 4 | 3 | 1 | 1 | 3 | 0 | 1 | 0 | –
Cc1nn(-c2cncnc2)cc1NC(=O)OC(C)(C)C [Compound A3, tert-butyl N-(3-methyl-1-pyrimidin-5-yl-pyrazol-4-yl)carbamate] | – | – | – | – | – | – | – | – | – | – | – | – | Control of AVEFA after post-emergence application (damage score 0-5) ([1]; Rate 500 g/ha): 4; Control of LOLPE after post-emergence application (damage score 0-5) ([2]; Rate 500 g/ha): 2; Control of ECHCG after post-emergence application (damage score 0-5) ([3]; Rate 500 g/ha): 5; Control of TRZAW after post-emergence application (damage score 0-5) ([4]; Rate 500 g/ha): 1; Control of ORYSA after post-emergence application (damage score 0-5) ([5]; Rate 500 g/ha): 1; Control of ALOMY after post-emergence application (damage score 0-5) ([6]; Rate 500 g/ha): 2; Control of AVEFA after pre-emergence application (damage score 0-5) ([7]; Rate 500 g/ha): 0; Control of LOLPE after pre-emergence application (damage score 0-5) ([8]; Rate 500 g/ha): 0; Control of ECHCG after pre-emergence application (damage score 0-5) ([9]; Rate 500 g/ha): 4; Control of TRZAW after pre-emergence application (damage score 0-5) ([10]; Rate 500 g/ha): 1; Control of ORYSA after pre-emergence application (damage score 0-5) ([11]; Rate 500 g/ha): 1; Control of ALOMY after pre-emergence application (damage score 0-5) ([12]; Rate 500 g/ha): 0
CC(C)(C)OC(=O)Nc1cn(-c2cncnc2)nc1C(F)(F)F [Compound A4] | 1 | 1 | 5 | 1 | 2 | 1 | 1 | 0 | 4 | 0 | 1 | 0 | –
Cc1nn(-c2cncnc2)cc1N(C)C(=O)OC(C)(C)C [Compound A5, tert-butyl N-methyl-N-(3-methyl-1-pyrimidin-5-yl-pyrazol-4-yl)carbamate] | 0 | 2 | 5 | 2 | 5 | 4 | 4 | 1 | 5 | 4 | 2 | 1 | –
CN(C(=O)OC(C)(C)C)c1cn(-c2cncnc2)nc1C(F)(F)F [Compound A6] | 1 | 1 | 5 | 1 | 5 | 3 | 3 | 1 | 5 | 0 | 2 | 0 | –
CC(C)(C)OC(=O)Nc1cn(-c2cccnc2)nc1C(F)(F)F [Compound A7] | – | – | – | – | – | – | – | – | – | – | – | – | Control of AVEFA after post-emergence application (damage score 0-5) ([1]; Rate 500 g/ha): 2; Control of LOLPE after post-emergence application (damage score 0-5) ([2]; Rate 500 g/ha): 1; Control of ECHCG after post-emergence application (damage score 0-5) ([3]; Rate 500 g/ha): 4; Control of TRZAW after post-emergence application (damage score 0-5) ([4]; Rate 500 g/ha): 0; Control of ORYSA after post-emergence application (damage score 0-5) ([5]; Rate 500 g/ha): 1; Control of ALOMY after post-emergence application (damage score 0-5) ([6]; Rate 500 g/ha): 2; Control of AVEFA after pre-emergence application (damage score 0-5) ([7]; Rate 500 g/ha): 0; Control of LOLPE after pre-emergence application (damage score 0-5) ([8]; Rate 500 g/ha): 0; Control of ECHCG after pre-emergence application (damage score 0-5) ([9]; Rate 500 g/ha): 2; Control of TRZAW after pre-emergence application (damage score 0-5) ([10]; Rate 500 g/ha): 0; Control of ORYSA after pre-emergence application (damage score 0-5) ([11]; Rate 500 g/ha): 1; Control of ALOMY after pre-emergence application (damage score 0-5) ([12]; Rate 500 g/ha): 0
Cc1nn(-c2cncc(F)c2)cc1N(C)C(=O)OC(C)(C)C [Compound A10] | 3 | 1 | 4 | 0 | 1 | 1 | 2 | 1 | 4 | 0 | 1 | 0 | –
CN(C(=O)OC(C)(C)C)c1cc(-c2cncnc2)nn1C [Compound A14] | 4 | 3 | 4 | 1 | 0 | 1 | 3 | 0 | 3 | 1 | 0 | 1 | –
